Assay results as given in patent publication US5279836A, “Topical use of calcitonin for the preparation of medications in senile idiopathic cataract and a pharmaeutical composition thereof” (Mediator S.R.L., priority 1991, dated 1994).
Positions of bridges follow the written chain, without caps; N, C: chain ends. Non-standard residues stand in square brackets, D forms with d. Residues, ends and D or L forms follow the SMILES beside them. Asu = N[C@@H](CCCCCC(=O)O)C(=O)O

Assays:
[1] = test system: sheep lens; settings: sheep lens in vitro, incubation; cited from earlier work
[2] = test system: corneal epithelium; assay: Systemic and local (corneal) tolerance after topical instillation of the collyrium; assay type: in vivo, rabbit; settings: rabbits, topical collyrium 5 U.MRC; 2% fluorescein test
Experimental: After the Keratocentesis a new test of the corneal surface integrity was performed with instillation of 2% fluorescein and washing with physiological solution.

Compound | calcium levels in the lens [1] | systemic phenomena of drug intolerance and local toxic phenomena (corneal epithelium) [2]
calcitonin | raises the calcium levels proportionally with the incubation times | 
CC(C)C[C@H](NC(=O)[C@H](CCCCN)NC(=O)CNC(=O)[C@H](CC(C)C)NC(=O)[C@@H](NC(=O)[C@@H]1CCCCCC(=O)N[C@@H](CO)C(=O)N[C@@H](CC(N)=O)C(=O)N[C@@H](CC(C)C)C(=O)N[C@@H](CO)C(=O)N[C@@H]([C@@H](C)O)C(=O)N1)C(C)C)C(=O)N[C@@H](CO)C(=O)N[C@@H](CCC(N)=O)C(=O)N[C@@H](CCC(=O)O)C(=O)N[C@@H](CC(C)C)C(=O)N[C@@H](Cc1c[nH]cn1)C(=O)N[C@@H](CCCCN)C(=O)N[C@@H](CC(C)C)C(=O)N[C@@H](CCC(N)=O)C(=O)N[C@H](C(=O)N[C@@H](Cc1ccc(O)cc1)C(=O)N1CCC[C@H]1C(=O)N[C@@H](CCCNC(=N)N)C(=O)N[C@H](C(=O)N[C@@H](CC(=O)O)C(=O)N[C@H](C(=O)NCC(=O)N[C@@H](C)C(=O)NCC(=O)N[C@H](C(=O)N1CCC[C@H]1C(N)=O)[C@@H](C)O)C(C)C)[C@@H](C)O)[C@@H](C)O [elcatonin] (SNLST[Asu]VLGKLSQELHKLQTYPRTDVGAGTP-NH2; lactam N-6) |  | No animal showed systemic phenomena of the drug intolerance nor local toxic phenomena
